Measurements taken from patent publication US20250144067A1, “PERSONALIZED STARVATION THERAPY FOR CANCER” (Faeth Therapeutics, Inc., priority 2021, published 2025).
Where a name gives a salt, the structure may show the parent alone. Read-outs that look alike come from different tables or passages of the source.

Legend:
[1] = test system: NCI-H292 lung cancer cells; experiment: FDA drug screening, complete media vs cholesterol-free media without statin (TABLE 1); assay type: cell-based, human
[2] = test system: NCI-H292 lung cancer cells; experiment: FDA drug screening, complete media vs cholesterol-free media with simvastatin (TABLE 2); assay type: cell-based, human
[3] = Complete minus Cholesterol-free, >0 enhanced anti-cancer activity, about 0 neutral, <0 antagonist
[4] = NCI-H292 cells, cholesterol-free media without statin, FDA drug library screen
[5] = NCI-H292 cells, complete media, FDA drug library screen
[6] = NCI-H292 cells, FDA drug library screen, cholesterol-free media with simvastatin 0.04 μM
[7] = NCI-H292 cells, FDA drug library screen, complete media
[8] = complete media vs cholesterol-free media + simvastatin (0.04 μM), >0 enhanced anti-cancer activity, about 0 neutral, <0 antagonist
[9] = NCI-H292 cells, cholesterol-free media without statin
[10] = complete media minus cholesterol-free media + simvastatin, >0 enhanced anti-cancer activity, about 0 neutral, <0 antagonist
[11] = Complete minus Cholesterol-free, greater than 0 enhanced anti-cancer activity, about 0 neutral, below 0 antagonists
[12] = NCI-H292 cells in cholesterol-free media without statin
[13] = NCI-H292 cells in complete media
[14] = complete vs cholesterol-free media, >0 enhanced anti-cancer activity, about 0 neutral, <0 antagonist
[15] = NCI-H292 cells, FDA library drug in cholesterol-free media with simvastatin 0.04 μM
[16] = NCI-H292 cells, FDA library drug in complete media
[17] = Complete minus Cholesterol-free, greater than 0 enhanced anti-cancer activity, about 0 neutral, below 0 antagonist
[18] = NCI-H292 cells, FDA drug library screen, cholesterol-free media without statin
[19] = NCI-H292 cells, drug in cholesterol-free media with simvastatin 0.04 μM
[20] = NCI-H292 cells, drug in complete media
[21] = NCI-H292 cells, cholesterol-free media with simvastatin 0.04 μM, FDA drug library screen (TABLE 2)
[22] = NCI-H292 cells, complete media, FDA drug library screen (TABLE 2)
[23] = complete media minus cholesterol-free media + simvastatin (0.04 μM), >0 enhanced anti-cancer activity, about 0 neutral, <0 antagonist

Tafenoquine (Succinate)
Difference [1, 3]: −0.06 | Cholesterol-free [1, 4]: 1.252 | Complete [1, 5]: 1.196 | Cholesterol-free media + simvastatin (0.04 μM) [2, 6]: 1.136 | Complete Media [2, 7]: 1.045 | Difference [2, 8]: −0.09

CCCC(CCC)C(N)=O [Valpromide]
Difference [1, 3]: −0.27 | Cholesterol-free [1, 9]: 1.075 | Complete ([1]; NCI-H292 cells, complete media): 0.8044 | Cholesterol-free media + simvastatin (0.04 μM) [2, 6]: 1.404 | Complete Media [2, 7]: 1.717 | Difference [2, 10]: 0.31

Cc1ccccc1N1C(=O)c2cc(S(N)(=O)=O)c(Cl)cc2NC1C (stereo not drawn) [Metolazone]
Difference [1, 11]: −0.62 | Cholesterol-free [1, 12]: 1.469 | Complete [1, 13]: 0.8441 | Cholesterol-free media + simvastatin (0.04 μM) [2, 6]: 1.129 | Complete Media [2, 7]: 0.9754 | Difference [2, 8]: −0.15

CCn1cc(C(=O)O)c(=O)c2cc(F)c(N3CCNCC3)cc21 [Norfloxacin]
Cholesterol-free [1, 4]: 1.043 | Complete [1, 5]: 1.123 | Difference [1, 14]: 0.08 | Cholesterol-free media + simvastatin (0.04 μM) [2, 15]: 1.696 | Complete Media [2, 16]: 1.396 | Difference [2, 8]: −0.30

CC(Oc1c(Cl)cccc1Cl)C1=NCCN1 (stereo not drawn) [Lofexidine]
Difference [1, 17]: −0.14 | Cholesterol-free [1, 18]: 0.8805 | Complete [1, 7]: 0.7367 | Cholesterol-free media + simvastatin (0.04 μM) [2, 15]: 1.108 | Complete Media [2, 16]: 0.8401 | Difference [2, 8]: −0.27

Cc1cc(NC(=O)C2=C(O)c3ccccc3S(=O)(=O)N2C)no1 [Isoxicam]
Difference [1, 11]: −0.71 | Cholesterol-free [1, 12]: 1.72 | Complete [1, 13]: 1.015 | Cholesterol-free media + simvastatin (0.04 μM) [2, 19]: 1.282 | Complete Media [2, 20]: 1.064 | Difference [2, 8]: −0.22

N#Cc1ccc2[nH]cc(CCCCN3CCN(c4ccc5oc(C(=O)O)cc5c4)CC3)c2c1 [Vilazodone carboxylic acid]
Difference [1, 3]: −0.19 | Cholesterol-free [1, 9]: 0.9582 | Complete ([1]; NCI-H292 cells, complete media): 0.7696 | Cholesterol-free media + simvastatin (0.04 μM) [2, 21]: 1.218 | Complete Media [2, 22]: 1.232 | Difference [2, 23]: 0.01

Cc1ncc([N+](=O)[O-])n1CC(O)CCl (stereo not drawn) [Ornidazole (Levo-)]
Difference [1, 11]: −0.58 | Cholesterol-free [1, 12]: 1.634 | Complete [1, 13]: 1.058 | Cholesterol-free media + simvastatin (0.04 μM) ([2]; NCI-H292 cells, cholesterol-free media with simvastatin 0.04 μM, cell growth value in FDA drug screen): 0.9725 | Complete Media ([2]; NCI-H292 cells, complete media, cell growth value in FDA drug screen): 1.072 | Difference [2, 10]: 0.10

CC(=O)Oc1cc2c(s1)CCN(C(C(=O)C1CC1)c1ccccc1F)C2 (stereo not drawn) [Prasugrel (hydrochloride)]
Cholesterol-free [1, 4]: 0.9393 | Complete [1, 5]: 1.044 | Difference [1, 14]: 0.10 | Cholesterol-free media + simvastatin (0.04 μM) [2, 19]: 1.213 | Complete Media [2, 20]: 1.05 | Difference [2, 8]: −0.16

Cc1nnc(SCC2=C(C(=O)[O-])N3C(=O)[C@@H](NC(=O)Cn4cnnn4)[C@H]3SC2)s1.[Na+] [Cefazolin (sodium)]
Difference [1, 11]: −0.79 | Cholesterol-free [1, 12]: 1.776 | Complete [1, 13]: 0.9866 | Cholesterol-free media + simvastatin (0.04 μM) [2, 15]: 1.378 | Complete Media [2, 16]: 1.076 | Difference [2, 8]: −0.30

CC(C)(C)c1cc(-c2cc(-c3ccc(C(=O)O)cc3)ccc2OCCO)ccc1N1CCCC1 [Trifarotene]
Cholesterol-free [1, 9]: 1.099 | Complete ([1]; NCI-H292 cells, complete media): 0.7867 | Difference ([1]; complete vs cholesterol-free media, greater than 0 enhanced anti-cancer activity, about 0 neutral, below 0 antagonists): −0.31 | Cholesterol-free media + simvastatin (0.04 μM) [2, 6]: 0.9343 | Complete Media [2, 7]: 0.8355 | Difference [2, 8]: −0.10

Gabexate (mesylate)
Difference [1, 17]: −0.15 | Cholesterol-free [1, 18]: 1.126 | Complete [1, 7]: 0.973 | Cholesterol-free media + simvastatin (0.04 μM) [2, 19]: 1.435 | Complete Media [2, 20]: 1.185 | Difference [2, 8]: −0.25

Amlodipine (maleate)
Cholesterol-free [1]: 1.127 | Complete [1]: 0.9069 | Difference [1]: −0.22 | Cholesterol-free media + simvastatin (0.04 μM) [2]: 1.087 | Complete Media [2]: 0.7885 | Difference [2]: −0.30

CC(C)OC(=O)CCC/C=C\C[C@@H]1[C@@H](/C=C/[C@@H](O)COc2cccc(C(F)(F)F)c2)[C@H](O)C[C@@H]1O [Travoprost]
Difference [1, 11]: −1.01 | Cholesterol-free [1, 12]: 1.92 | Complete [1, 13]: 0.9075 | Cholesterol-free media + simvastatin (0.04 μM) [2, 21]: 0.9352 | Complete Media [2, 22]: 0.8818 | Difference [2, 23]: −0.05

[H]/N=C(/N)NS(=O)(=O)c1ccc(N)cc1 [Sulfaguanidine]
Difference [1, 3]: −0.24 | Cholesterol-free [1, 9]: 1.183 | Complete ([1]; NCI-H292 cells, complete media): 0.939 | Cholesterol-free media + simvastatin (0.04 μM) [2, 19]: 1.092 | Complete Media [2, 20]: 0.8866 | Difference [2, 8]: −0.21
